Laboratory results as given in patent US20250092065A1, “2-(INDAZOL-5-YL)-6-(PIPERIDIN-4-YL)-1,7-NAPHTHYRIDINE DERIVATIVES AND RELATED COMPOUNDS AS MODULATORS FOR SPLICING NUCLEIC ACIDS AND FOR THE TREATMENT OF PROLIFERATIVE DISEASES” (REMIX THERAPEUTICS INC., priority 2022, published 2025).
Where a name gives a salt, the structure may show the parent alone. Read-outs that look alike come from different tables or passages of the source.

How the values were obtained:
MYB mRNA = test: RT-qPCR splicing assay, MYB mRNA canonical (CJ) and alternative (AJ) junction; assay type: cell-based, human; details: Homo sapiens; for AC50: MYB alternative junction mRNA, read-out: MYB AJ (increase in AJ mRNA, AC50)
In short: (§1)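 A673 or K562 cells treated 24 h at 37 °C with an 11-point 3-fold dilution series (top 10 uM, DMSO ≤0.25%). Lysates went directly to one-step RT-qPCR quantifying canonical (CJ) and alternative-exon (AJ) junctions, normalized to GAPDH, GUSB or PPIA. Values from ΔΔCt versus DMSO, RQ = 2^(−ΔΔCt), expressed as percentage response.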

SMN2 mRNA = test: RT-qPCR splicing assay, SMN2 mRNA; assay type: cell-based, human; details: Homo sapiens, canonical junction qPCR panel, Table 4; read-out: SMN2 IC50 (decrease in CJ mRNA levels)
In short: as §1

Target C = test: RT-qPCR canonical junction panel assay, Target C mRNA; assay type: cell-based; details: Table 4, read-out: Target C IC50 (decrease in CJ mRNA levels)
In short: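 A673 or K562 cells treated with compound; CJ mRNA quantified by junction-spanning RT-qPCR probe after cDNA synthesis, normalised to GAPDH, GUSB or PPIA and DMSO (2^−ΔΔCt), scaled to set ΔCt assay window; IC50 from 4-parameter fit of CJ decrease.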

[1] = MYB canonical junction mRNA, RT-qPCR, read-out: MYB CJ (decrease in CJ mRNA levels, IC50)
[2] = canonical junction qPCR panel, Table 4, read-out: MYB IC50 (decrease in CJ mRNA levels)

Row | IC50 (MYB mRNA; [1]) [nM] | IC50 (MYB mRNA; [2]) [nM] | IC50 (SMN2 mRNA) [nM] | IC50 (Target C) [nM] | Compound | AC50 (MYB mRNA; RT-qPCR) [nM]
1 | 100 to 1000 | 100 to 1000 | < 100 | 1000 to 10000 | Cc1nc2cc(O)c(-c3ccc4cc(N5CC[C@@H](NC(C)(C)C)C5)ncc4n3)cc2o1 [Compound 417] | 100 to 1000
2 | 100 to 1000 | 100 to 1000 | 100 to 1000 | 100 to 1000 | Cc1nc2cc(O)c(-c3ccc4nc(N5CCN[C@@H](C6CC6)C5)ccc4n3)cc2o1 [Compound 418] | 100 to 1000
3 | 100 to 1000 | 100 to 1000 | < 100 | 100 to 1000 | Cc1nc2cc(O)c(-c3ccc4nc(N5C[C@@H](C)N[C@@H](C6CC6)C5)ccc4n3)cc2o1 [Compound 419] | 100 to 1000
4 | 100 to 1000 | 100 to 1000 | < 100 | 1000 to 10000 | Cc1nc2cc(O)c(-c3ccc4nc(N5C[C@@H](C)N[C@@H](C)C5)ccc4n3)cc2o1 [Compound 420] | 100 to 1000
5 | 100 to 1000 | 100 to 1000 | 100 to 1000 | 100 to 1000 | Cc1nc2cc(O)c(-c3ccc4nc(N5CCN[C@H](C6CC6)C5)ccc4n3)cc2o1 [Compound 421] | 100 to 1000
6 | 100 to 1000 | 100 to 1000 | < 100 | 1000 to 10000 | Cc1nc2cc(O)c(-c3ccc4nc(N5CCN[C@@H](C(C)C)C5)ccc4n3)cc2o1 [Compound 422] | 100 to 1000
7 | 1000 to 10000 | 1000 to 10000 | < 100 | 1000 to 10000 | Cc1nc2cc(O)c(-c3ccc4nc(N5CCC(N)CC5)ccc4n3)cc2o1 [Compound 424] | 1000 to 10000
8 | 1000 to 10000 | 1000 to 10000 | 100 to 1000 | > 10000 | CNC1CCN(c2ccc3nc(-c4cc5oc(C)nc5cc4O)ccc3n2)CC1 [Compound 425] | 1000 to 10000
9 | 100 to 1000 | 100 to 1000 | < 100 | 100 to 1000 | Cc1nc2c(C)c(O)c(-c3ccc4nc(N5CC[C@H](NC6CC6)C5)ncc4n3)cc2o1 [Compound 433, 6-{2-[(3S)-3-(cyclopropylamino)pyrrolidin-1-yl]pyrido[3,2-d]pyrimidin-6-yl}-2,4-dimethyl-1,3-benzoxazol-5-ol] | 100 to 1000
10 | 100 to 1000 | 100 to 1000 | < 100 | 100 to 1000 | Cc1nc2cc(O)c(-c3ccc4nc(N5CC[C@H](NC6CC6)C5)ncc4n3)cc2o1 [Compound 435, 6-{2-[(3S)-3-(cyclopropylamino)pyrrolidin-1-yl]pyrido[3,2-d]pyrimidin-6-yl}-2-methyl-1,3-benzoxazol-5-ol] | 100 to 1000
11 | < 100 | < 100 | < 100 | < 100 | Cc1nc2c(C)c(O)c(-c3ccc4nc(N5CC[C@@H](NC(C)(C)C)C5)ncc4n3)cc2o1 [Compound 436] | < 100
12 | 100 to 1000 | 100 to 1000 | 100 to 1000 | 100 to 1000 | Cc1nc2c(C)c(O)c(-c3ccc4nc(N5CC[C@H](NC(C)(C)C)C5)ncc4n3)cc2o1 [Compound 437] | 100 to 1000
13 | 100 to 1000 | 100 to 1000 | < 100 | 100 to 1000 | Cc1c(O)c(-c2ccc3nc(N4CC[C@@H](NC5CC5)C4)ncc3n2)cc2cn(C)nc12 [Compound 438, 5-{2-[(3R)-3-(cyclopropylamino)pyrrolidin-1-yl]pyrido[3,2-d]pyrimidin-6-yl}-2,7-dimethylindazol-6-ol] | < 100
14 | 100 to 1000 | 100 to 1000 | < 100 | 100 to 1000 | Cc1c(O)c(-c2ccc3nc(N4CC[C@H](NC5CC5)C4)ncc3n2)cc2cn(C)nc12 [Compound 439, 5-{2-[(3S)-3-(cyclopropylamino)pyrrolidin-1-yl]pyrido[3,2-d]pyrimidin-6-yl}-2,7-dimethylindazol-6-ol] | 100 to 1000
15 | 100 to 1000 | 100 to 1000 | < 100 | 100 to 1000 | Cc1nc2c(C)c(O)c(-c3ccc4cc(N5CC[C@@H](NC6CC6)C5)ncc4n3)cc2o1 [Compound 440, 6-{6-[(3R)-3-(cyclopropylamino)pyrrolidin-1-yl]-1,7-naphthyridin-2-yl}-2,4-dimethyl-1,3-benzoxazol-5-ol] | 100 to 1000
16 | 100 to 1000 | 100 to 1000 | < 100 | 100 to 1000 | Cc1nc2c(C)c(O)c(-c3ccc4cc(N5CC[C@H](NC6CC6)C5)ncc4n3)cc2o1 [Compound 441, 6-{6-[(3S)-3-(cyclopropylamino)pyrrolidin-1-yl]-1,7-naphthyridin-2-yl}-2,4-dimethyl-1,3-benzoxazol-5-ol] | 100 to 1000
17 | 100 to 1000 | 100 to 1000 | < 100 | 1000 to 10000 | Cn1cc2cc(-c3ccc4cc(N5CCC(NC(C)(C)C)C5)ncc4n3)c(O)cc2n1 (centres unmarked) [Compound 449, 5-{6-[3-(tert-butylamino)pyrrolidin-1-yl]-1,7-naphthyridin-2-yl}-2-methylindazol-6-ol] | 100 to 1000
18 | 1000 to 10000 | 1000 to 10000 | 1000 to 10000 | 1000 to 10000 | Cc1nc2cc(O)c(-c3ccc4cc(N5CC[C@H](NC(C)(C)C)C5)ncc4n3)cc2o1 [Compound 450] | 1000 to 10000
19 | < 100 | < 100 | < 100 | 1000 to 10000 | Cc1c(O)c(-c2cc(Cl)c3cc(N4CCNCC4)cc(C)c3n2)cc2cn(C)nc12 [Compound 482, 5-[4-chloro-8-methyl-6-(piperazin-1-yl)577yrrolidi-2-yl]-2,7-dimethylindazol-6-ol hydrochloride] | < 100
20 | 100 to 1000 | 100 to 1000 | < 100 | 1000 to 10000 | Cc1cc2nc(-c3cc4cn(C)nc4c(C)c3O)cc(Cl)c2cc1N1CCNCC1 [Compound 484, 5-[4-chloro-7-methyl-6-(piperazin-1-yl)586yrrolidi-2-yl]-2,7-dimethylindazol-6-ol] | 100 to 1000
21 | 100 to 1000 | 100 to 1000 | < 100 | 1000 to 10000 | CNC1CCN(c2cc3c(Cl)cc(-c4cc5cn(C)nc5c(C)c4O)nc3cc2C)C1 (centres unmarked) [Compound 486, 5-{4-chloro-7-methyl-6-[3-(methylamino)pyrrolidin-1-yl]quinolin-2-yl}-2,7-dimethylindazol-6-ol] | 100 to 1000

Row | Compound | IC50 (MYB mRNA; [1]) [nM] | IC50 (MYB mRNA; [2]) [nM] | IC50 (SMN2 mRNA) [nM] | IC50 (Target C) [nM] | AC50 (MYB mRNA; RT-qPCR) [nM]
22 | Cn1cc2cc(-c3ccc4nc(C5CCNC6(CC6)C5)ncc4n3)c(O)cc2n1 (centres unmarked) [Compound 448, 5-(2-{4-azaspiro[2.5]octan-7-yl}pyrido[3,2-d]pyrimidin-6-yl)-2-methylindazol-6-ol] | 100 to 1000 | 100 to 1000 | < 100 | 1000 to 10000 | 1000 to 10000
